Reference: US4452741A, “A-39183 Antibiotics and process for production thereof” (Eli Lilly and Company, priority 1983, dated 1984)
In brackets after ≈: the same amount, converted by molar mass. Like-named read-outs stand apart in the source and are kept apart here.

Experiments:
[1] = tested on: Bacteroides melaninogenicus 2736; assay: MIC, anaerobic bacteria; type: cell-based
[2] = tested on: Bacteroides fragilis 1451; assay: MIC, anaerobic bacteria; type: cell-based
[3] = tested on: Bacteroides vulgatis 1211; assay: MIC, anaerobic bacteria; type: cell-based
Bacteroides fragilis 108 = assay: MIC, anaerobic bacteria; type: cell-based
Bacteroides fragilis 107 = assay: MIC, anaerobic bacteria; type: cell-based
[4] = tested on: Bacteroides fragilis 1877; assay: MIC, anaerobic bacteria; type: cell-based
[5] = tested on: Eubacterium aerofaciens 1235; assay: MIC, anaerobic bacteria; type: cell-based; settings: Collinsella aerofaciens
[6] = tested on: Bacteroides fragilis 1470; assay: MIC, anaerobic bacteria; type: cell-based
[7] = tested on: Staphylococcus aureus 3074; assay: agar-dilution MIC; type: cell-based; settings: agar-dilution method, benzylpenicillin-resistant
[8] = tested on: Bacteroides fragilis 1936B; assay: MIC, anaerobic bacteria; type: cell-based
[9] = tested on: Bacteroides melaninogenicus 1856/28; assay: MIC, anaerobic bacteria; type: cell-based; settings: Prevotella intermedia
Bacteroides fragilis 103 = assay: MIC, anaerobic bacteria; type: cell-based
Bacteroides fragilis 9 = assay: MIC, anaerobic bacteria; type: cell-based
Bacteroides fragilis 111 = assay: MIC, anaerobic bacteria; type: cell-based
[10] = tested on: Staphylococcus aureus 3055; assay: agar-dilution MIC; type: cell-based
Description: (§1) The agar-dilution procedure described by the International Collaborative Study (ICS) group was used to determine MIC values.

Bacteroides fragilis 104 = assay: MIC, anaerobic bacteria; type: cell-based
Bacteroides fragilis 2 = assay: MIC, anaerobic bacteria; type: cell-based
[11] = tested on: Fusobacterium symbiosum 1470; assay: MIC, anaerobic bacteria; type: cell-based
Bacteroides fragilis 62 = assay: MIC, anaerobic bacteria; type: cell-based
[12] = tested on: Bacteroides thetaiotaomicron 1900A; assay: MIC, anaerobic bacteria; type: cell-based
Bacteroides fragilis 110 = assay: MIC, anaerobic bacteria; type: cell-based
[13] = tested on: Streptococcus faecalis X66; assay: agar-dilution MIC; type: cell-based; settings: Enterococcus faecalis
solubility = type: physicochemical; settings: organic solvents
electrometric titration = type: physicochemical; settings: 66% dimethylformamide in water
Protocol: Antibiotic A-39183 factor A is a yellow, crystalline solid, having a molecular weight of 598.58, as determined by mass spectrometry, and an approximate elemental analysis as follows: 67.95% carbon, 5.20% hydrogen, and 26.79% oxygen. […] A-39183 factor A has the following specific rotation: [α]D^25 +18.9° (c 9.52, trifluoroethanol).
Antibiotic A-39183 factor b is a red, crystalline solid having a molecular weight of 580, as determined by mass spectrometry, and an approximate elemental analysis as follows: 70.56% carbon, 4.97% hydrogen, and 24.57% oxygen. […] A-39183 factor B has the following specific rotation: [α]D^25 +576.9° (c 8.85, trifluoroethanol).

[14] = tested on: Peptostreptococcus anaerobius 1428; assay: MIC, anaerobic bacteria; type: cell-based
[15] = tested on: Clostridium perfringens 81; assay: microbe, parasite or virus in culture; type: cell-based
[16] = tested on: Actinomyces israelii W855; assay: MIC, anaerobic bacteria; type: cell-based
Peptococcus prevoti 1281 = assay: MIC, anaerobic bacteria; type: cell-based
[17] = tested on: Streptococcus pneumoniae Park I; assay: disc-plate zone of inhibition; type: cell-based; settings: 6 mm discs, read-out: Zone Diameter
Protocol: (§2) Agar plates, inoculated with the test organism, were used; 6 mm. discs (0.02 ml. capacity) were saturated from log 2 dilutions of the antibiotic solution. Disc content was 1/5 or 1/50 of the concentration of the solution used, i.e., disc content of […] 30 μg. was obtained from a solution of 1500 μg./ml. concentration.

[18] = tested on: Staphylococcus aureus 3055; assay: disc-plate zone of inhibition; type: cell-based; settings: benzylpenicillin-susceptible, 6 mm discs, read-out: Zone Diameter
Protocol: as §2

[19] = tested on: Streptococcus pyogenes C203; assay: disc-plate zone of inhibition; type: cell-based; settings: 6 mm discs, read-out: Zone Diameter
Protocol: as §2

[20] = tested on: Streptococcus sp. (Group D) 9960; assay: disc-plate zone of inhibition; type: cell-based; settings: 6 mm discs, read-out: Zone Diameter
Protocol: as §2

[21] = tested on: Staphylococcus aureus 3130; assay: disc-plate zone of inhibition; type: cell-based; settings: benzylpenicillin-resistant, methicillin-resistant, 6 mm discs, read-out: Zone Diameter
Protocol: as §2

[22] = tested on: Staphylococcus aureus 3074; assay: disc-plate zone of inhibition; type: cell-based; settings: benzylpenicillin-resistant, 6 mm discs, read-out: Zone Diameter
Protocol: as §2

[23] = tested on: Fusobacterium necrophorum 6054A; assay: MIC, anaerobic bacteria; type: cell-based
Bacteroides fragilis 112 = assay: MIC, anaerobic bacteria; type: cell-based
Bacteroides fragilis 113 = assay: MIC, anaerobic bacteria; type: cell-based
[24] = tested on: Clostridium septicum 1128; assay: MIC, anaerobic bacteria; type: cell-based
Description: as §1

[25] = tested on: Bacteroides thetaiotaomicron 1438; assay: MIC, anaerobic bacteria; type: cell-based
Description: as §1

[26] = tested on: Peptostreptococcus intermedius 1264; assay: MIC, anaerobic bacteria; type: cell-based
[27] = tested on: Bacteroides corrodens 1874; assay: MIC, anaerobic bacteria; type: cell-based
Bacteroides fragilis 106 = assay: MIC, anaerobic bacteria; type: cell-based
[28] = tested on: Peptococcus asaccharolyticus 1302; assay: MIC, anaerobic bacteria; type: cell-based; settings: Peptoniphilus asaccharolyticus
[29] = tested on: Propionibacterium acnes 79; assay: MIC, anaerobic bacteria; type: cell-based; settings: Cutibacterium acnes
[30] = tested on: Bacteroides vulgatis 1563; assay: MIC, anaerobic bacteria; type: cell-based
[31] = Bacteroides fragilis, 1877, Bacteroides fragilis 1877, first listing
[32] = Bacteroides fragilis, 111, Bacteroides fragilis 111, first listing
[33] = Bacteroides thetaiotaomicron, 1438, Bacteroides thetaiotaomicron 1438, first listing, read-out: MIC
[34] = Eikenella corrodens, 1874, Bacteroides corrodens 1874, first listing

Compound `CC(=O)c1c(C)cc(O)c2c(O)c3c(O)cccc3c(-c3c4c(c(O)c5c(O)cccc35)C(=O)CC(C)(O)C4C(C)=O)c12` (centres unmarked) [A-39183 factor B] has an MIC [1] of 4 µg/mL (≈ 6.89 µM), an MIC [2] of 4 µg/mL (≈ 6.89 µM) and an MIC [3] of 2 µg/mL (≈ 3.44 µM). The MIC (Bacteroides fragilis 108) was 4 µg/mL (≈ 6.89 µM), the MIC (Bacteroides fragilis 107) was 4 µg/mL (≈ 6.89 µM) and the MIC [4, 31] was 1 µg/mL (≈ 1.72 µM). It also gave an MIC ([4]; Bacteroides fragilis, 1877, Bacteroides fragilis 1877, second listing) of 4 µg/mL (≈ 6.89 µM), an MIC [5] of 8 µg/mL (≈ 13.8 µM) and an MIC [6] of 4 µg/mL (≈ 6.89 µM). For the same compound, the MIC [7] was 4 µg/mL (≈ 6.89 µM), the MIC [8] was 2 µg/mL (≈ 3.44 µM) and the MIC [9] was greater than 128 µg/mL. It also gave an MIC (Bacteroides fragilis 103) of 4 µg/mL (≈ 6.89 µM), an MIC (Bacteroides fragilis 9) of 4 µg/mL (≈ 6.89 µM) and an MIC (Bacteroides fragilis 111; [32]) of no more than 0.5 µg/mL. The MIC (Bacteroides fragilis 111; Bacteroides fragilis, 111, Bacteroides fragilis 111, second listing) was 4 µg/mL (≈ 6.89 µM), the MIC [10] was 0.5 µg/mL (≈ 0.861 µM) and the MIC (Bacteroides fragilis 104) was 4 µg/mL (≈ 6.89 µM). The MIC (Bacteroides fragilis 2) was 2 µg/mL (≈ 3.44 µM), the MIC [11] was 8 µg/mL (≈ 13.8 µM) and the MIC (Bacteroides fragilis 62) was 1 µg/mL (≈ 1.72 µM). For the same compound, the MIC [12] was 16 µg/mL (≈ 27.6 µM), the MIC (Bacteroides fragilis 110) was 4 µg/mL (≈ 6.89 µM) and the MIC [13] was 4 µg/mL (≈ 6.89 µM). The “solubility (soluble)” value (solubility) was “soluble in the same solvents as factor A”, the pKa (electrometric titration; pH 4.03, 66% dimethylformamide in water, initial pH 4.03, read-out: pKa (first titratable group)) was roughly 6.68 and the pKa (electrometric titration; pH 4.03, 66% dimethylformamide in water, initial pH 4.03, read-out: pKa (second titratable group)) was roughly 8.42. For the same compound, the MIC [14] was 8 µg/mL (≈ 13.8 µM), the MIC [15] was 8 µg/mL (≈ 13.8 µM) and the MIC [16] was no more than 0.5 µg/mL. It also gave an MIC (Peptococcus prevoti 1281) of 8 µg/mL (≈ 13.8 µM), a zone of inhibition at 30 µg/disc ([17]; 30 μg/disc) of 0 mm and a zone of inhibition at 300 µg/disc ([17]; 300 μg/disc) of 9.1 mm. It also gave a zone of inhibition at 30 µg/disc ([18]; 30 μg/disc) of 0 mm, a zone of inhibition at 300 µg/disc ([18]; 300 μg/disc) of 0 mm and a zone of inhibition at 30 µg/disc ([19]; 30 μg/disc) of 8 mm. It also gave a zone of inhibition at 300 µg/disc ([19]; 300 μg/disc) of 10 mm, a zone of inhibition at 30 µg/disc ([20]; 30 μg/disc) of 0 mm and a zone of inhibition at 300 µg/disc ([20]; 300 μg/disc) of 9.1 mm. It also gave a zone of inhibition at 30 µg/disc ([21]; 30 μg/disc) of 13.4 mm, a zone of inhibition at 300 µg/disc ([21]; 300 μg/disc) of 14 mm and a zone of inhibition at 30 µg/disc ([22]; 30 μg/disc) of 14.8 mm. It also gave a zone of inhibition at 300 µg/disc ([22]; 300 μg/disc) of 15.8 mm, an MIC [23] of no more than 0.5 µg/mL and an MIC (Bacteroides fragilis 112) of 4 µg/mL (≈ 6.89 µM). It also gave an MIC (Bacteroides fragilis 113) of 4 µg/mL (≈ 6.89 µM), an MIC [24] of 2 µg/mL (≈ 3.44 µM) and an MIC [25, 33] of 16 µg/mL (≈ 27.6 µM). For the same compound, the MIC ([25]; Bacteroides thetaiotaomicron, 1438, Bacteroides thetaiotaomicron 1438, second listing) was 4 µg/mL (≈ 6.89 µM), the MIC [26] was 2 µg/mL (≈ 3.44 µM) and the MIC [27, 34] was 1 µg/mL (≈ 1.72 µM). The MIC ([27]; Eikenella corrodens, 1874, Bacteroides corrodens 1874, second listing) was 4 µg/mL (≈ 6.89 µM), the MIC (Bacteroides fragilis 106) was 4 µg/mL (≈ 6.89 µM) and the MIC [28] was 32 µg/mL (≈ 55.1 µM). For the same compound, the MIC [29] was 2 µg/mL (≈ 3.44 µM) and the MIC [30] was 8 µg/mL (≈ 13.8 µM).

Work on `CC(=O)C1c2c(c(O)c3c(O)cccc3c2-c2c3c(c(O)c4c(O)cccc24)C(=O)CC(C)(O)C3C(C)=O)C(=O)CC1(C)O` (centres unmarked) [A-39183 factor A] yielded an MIC [1] of 16 µg/mL (≈ 26.7 µM), an MIC [3] of 32 µg/mL (≈ 53.5 µM) and an MIC [4, 31] of 32 µg/mL (≈ 53.5 µM). The MIC [5] was 32 µg/mL (≈ 53.5 µM), the MIC [8] was 32 µg/mL (≈ 53.5 µM) and the MIC [9] was greater than 128 µg/mL. The MIC (Bacteroides fragilis 111; [32]) was 32 µg/mL (≈ 53.5 µM), the MIC ([10]; agar-dilution method, benzylpenicillin-susceptible, read-out: MIC) was 32 µg/mL (≈ 53.5 µM) and the MIC [11] was 64 µg/mL (≈ 107 µM). For the same compound, the MIC ([13]; agar-dilution method, read-out: MIC) was 32 µg/mL (≈ 53.5 µM), the “solubility (soluble)” value (solubility) was “soluble in acetone, ethyl acetate, chloroform, dimethylformamide, dimethyl sulfoxide, and trifluoroethanol” and the pKa (electrometric titration; pH 4.81, 66% dimethylformamide in water, initial pH 4.81, read-out: pKa (first titratable group)) was roughly 6.75. For the same compound, the pKa (electrometric titration; pH 4.81, 66% dimethylformamide in water, initial pH 4.81, read-out: pKa (second titratable group)) was roughly 8.43, the MIC [14] was 64 µg/mL (≈ 107 µM) and the MIC [15] was 32 µg/mL (≈ 53.5 µM). It also gave an MIC [16] of no more than 0.5 µg/mL, an MIC (Peptococcus prevoti 1281) of 32 µg/mL (≈ 53.5 µM) and an MIC [23] of 16 µg/mL (≈ 26.7 µM). The MIC [24] was 16 µg/mL (≈ 26.7 µM), the MIC [25, 33] was 16 µg/mL (≈ 26.7 µM) and the MIC [26] was 32 µg/mL (≈ 53.5 µM). The MIC [27, 34] was 32 µg/mL (≈ 53.5 µM), the MIC [28] was 64 µg/mL (≈ 107 µM) and the MIC [29] was 32 µg/mL (≈ 53.5 µM).
